# Results as given in patent US4572911A, “Hexahydroindolinzine compounds, pharmaceutical compositions and methods and intermediates” (priority 1984, dated 1986).
# Structures can show the parent of a compound that is named as a salt. Where two headings read alike, the source gives them in different places.
# Legend:
# gastric acid secretion = test: Acute Gastric Fistula Rat Test (inhibition of gastric acid secretion, Total Acid Output); type: in vivo, Female Sprague-Dawley rats; details: 1 h, @ 20 mg/kg i.d. (intraduodenal), collection at one hour, read-out: % Inhibition of TAO (Total Acid Output)
# Protocol: The compounds of the invention are useful for inhibition of gastric acid secretion as measured by the following test. Female Sprague-Dawley rats are fasted twenty-four hours before testing and are given water ad libidum while being kept in individual cages. On the day of testing, the rats are weighed and are selected so that the rats in each test weigh within a range of ±20 grams.
# Surgery is carried out under light ether anesthesia. As soon as the rat is anesthetized its teeth are removed and a mid-line incision is made on the abdomen about 11/2 inches in length and the stomach and duodenum are exposed. If at this point the stomach is filled with food or fecal material, the rat is not used. If the condition of the stomach is acceptable, a purse string stitch is placed on the fundic portion of the stomach with a suture, taking care not to pierce any blood vessels in the area. A small nick is then made into the stomach in the center of the purse string, and a cannula, consisting of a small vinyl tube with a flange on one end, is put into the stomach, and the purse string stitch is closed tightly around the flange. The test compound is administered intraduodonally (i.d.) immediately after surgery in a volume of 0.5 ml/100 grams rat. Control rats receive the test vehicle, 0.5% aqueous methyl cellulose.
# After the surgery and after administration of the test compound, the abdominal wall and skin are closed simultaneously with three or four 10 mm wound clips and a collecting tube is placed on the cannula. Each rat is then placed in a box in which a longitudinal slit has been made to allow the cannula to hang freely and to allow the rat to move about unencumbered. After the rat has been allowed to stabilize for thirty minutes, the collection tube on the cannula is discarded and replaced with a clean tube to receive the gastric juice. Collections are made at one hour.
# The sample of gastric contents collected is drained into a centrifuge tube and centrifuged to pack down the sediment. The volume is read and a 1 ml aliquot of the supernatant is put into a beaker containing 10 ml distilled water and is titrated to pH 7 using 0.01 N sodium hydroxide. Results are determined for Volume, Titratable Acid and Total Acid Output, where Volume equals total ml of gastric juice minus sediment; Titratable Acid (meq/1) equals amount of 0.01 N sodium hydroxide needed to titrate the acid to pH 7; and Total Acid Output equals Titratable Acid times Volume. Results are reported as % inhibition of Total Acid Output (TAO) for a dose of 20 mg/kg i.d. of the compound of formula (I) or (II). Particularly useful are compounds having significant inhibition of TAO at a dose of 20 mg/kg.
# [1] = test system: depressant effects of tetrabenazine (TBZ); test: tetrabenazine (TBZ) antagonism assay for antidepressant agents; type: in vivo; details: Mus musculus, ip, 0.5 h, mice, test compound i.p. 30 minutes prior to 32 mg/kg i.p. TBZ
# Protocol: This is the "classical" tetrabenazine antagonism assay described in U.S. Pat. No. 3,787,577. Mice are injected with a test compound 30 minutes prior to the injection of 32 mg/kg i.p. of TBZ, a drug which decreases normal exploratory activity and induces ptosis. After 30 minutes, the mice are tested for two parameters: the presence of normal exploratory activity (EA) and reversal of ptosis (Pt). A control group of mice is given only 32 mg/kg i.p. of TBZ.
# [2] = normal exploratory activity, read-out: TBZ ED50 EA (exploratory activity)
# [3] = reversal of ptosis, read-out: TBZ ED50 Pt (reversal of ptosis)
compound,measurement,setting,value
"CC12CCCN1CCc1[nH]ccc12 (stereo not shown) [Example 5, 4,5,7,8,9,9a-Hexahydro-9a-methyl-3H-pyrrolo[2,3-g]-indolizine E-(2-)butenedioate(1:1)]",inhibition in vivo at 20 mg/kg,gastric acid secretion,66%
"c1csc([C@@H]2CN3CCC[C@@H]3c3ccsc32)c1 (relative stereo) [20 (2nd), 4,5,7,8,9,9a-beta-hexahydro-4-alpha-(2-thienyl)thieno[2,3-g]indolizine]",inhibition in vivo at 20 mg/kg,gastric acid secretion,41%
same,ED50,[1]; [2],~24 mg/kg
same,ED50,[1]; [3],~30 mg/kg
"c1csc([C@@H]2CN3CCC[C@H]3c3ccsc32)c1 (relative stereo) [20 (1st), 4,5,7,8,9,9a-alpha-Hexahydro-4-alpha-(2-thienyl)thieno[2,3-g]indolizine]",inhibition in vivo at 20 mg/kg,gastric acid secretion,47%
"Cn1ccc2c1[C@H](c1ccccc1)CN1CCC[C@H]21 (relative stereo) [17 (2nd), 4,5,7,8,9,9a-beta-Hexahydro-3-methyl-4-alpha-phenyl-3H-pyrrolo[2,3-g]indolizine]",inhibition in vivo at 20 mg/kg,gastric acid secretion,88%
same,ED50,[1]; [2],2.4 mg/kg
same,ED50,[1]; [3],~0.75 mg/kg
"Cn1ccc2c1C1(C)CCCN1CC2 (stereo not shown) [Example 16, 1,9a-Dimethyl-4,5,7,8,9,9a-hexahydro-1H-pyrrolo[3,2-g]indolizine cyclohexanesulfamate]",inhibition in vivo at 20 mg/kg,gastric acid secretion,86%
"CC12CCCN1CCc1c2ccn1-c1ccccc1 (stereo not shown) [Example 10, 4,5,7,8,9,9a-Hexahydro-9a-methyl-3-phenyl-3H-pyrrolo[2,3-g]indolizine]",inhibition in vivo at 20 mg/kg,gastric acid secretion,82%
"Cn1ccc2c1[C@H](c1ccccc1)CN1CCC[C@@H]21 (relative stereo) [17 (1st), 4,5,7,8,9,9a-alpha-Hexahydro-3-methyl-4-alpha-phenyl-3H-pyrrolo[2,3-g]indolizine]",inhibition in vivo at 20 mg/kg,gastric acid secretion,90%
"c1ccc([C@@H]2CN3CCC[C@H]3c3sccc32)cc1 (relative stereo) [19 (3rd), 4,5,7,8,9,9a-alpha-hexahydro-4-alpha-phenylthieno[3,2-g]indolizine]",inhibition in vivo at 20 mg/kg,gastric acid secretion,88%
"C[C@@]12CCCN1C[C@@H](c1ccccc1)c1sccc12 (relative stereo) [Example 18, 4,5,7,8,9,9a-Hexahydro-9a-alpha-methyl-4-alpha-phenylthieno-[2,3-g]indolizine perchlorate (1:1)]",inhibition in vivo at 20 mg/kg,gastric acid secretion,100%
"c1ccc([C@@H]2CN3CCC[C@@H]3c3ccsc32)cc1 (relative stereo) [19 (2nd), 4,5,7,8,9,9a-beta-hexahydro-4-alpha-phenylthieno[2,3-g]indolizine]",inhibition in vivo at 20 mg/kg,gastric acid secretion,98%
"Cn1ccc2c1CCN1CCCC21c1ccccc1 (stereo not shown) [Example 7, 4,5,7,8,9,9a-Hexahydro-3-methyl-9a-phenyl-3H-pyrrolo[2,3-g]indolizine]",inhibition in vivo at 20 mg/kg,gastric acid secretion,86%
"CC12CCCN1CCc1c2ccn1Cc1ccccc1Cl (stereo not shown) [Example 4, 3-(2-Chlorobenzyl)-4,5,7,8,9,9a-hexahydro-9a-methyl-3H-pyrrolo[2,3-g]indolizine]",inhibition in vivo at 20 mg/kg,gastric acid secretion,78%
"c1ccc([C@@H]2CN3CCC[C@H]3c3ccsc32)cc1 (relative stereo) [19 (1st), 4,5,7,8,9,9a-alpha-Hexahydro-4-alpha-phenylthieno[2,3-g]indolizine]",inhibition in vivo at 20 mg/kg,gastric acid secretion,98%
"Cn1ccc2c1CCN1C(c3ccc(Cl)cc3)CCC21C (stereo not shown) [Example 12, 7-(4-Chlorophenyl)-4,5,7,8,9,9a-hexahydro-3,9a-dimethyl-3H-pyrrolo[2,3-g]indolizine (E)-2-butenedioate (1:7) hydrate (1:2)]",inhibition in vivo at 20 mg/kg,gastric acid secretion,37%
"Cn1ccc2c1CCN1CCCC21C (stereo not shown) [Example 13, 3,9a-Dimethyl-4,5,7,8,9,9a-hexahydro-3H-pyrrolo[2,3-]indolizine hydrochloride]",inhibition in vivo at 20 mg/kg,gastric acid secretion,74%
